System: male C57BL/6 mice
Assay: 55° C. warm-water tail-flick test (antinociception)
Type: in vivo
Details: Mus musculus; half maximal effective dose in mice; using one of: warm water tail-flick test, spared nerve injury, chronic constriction injury, or Complete Freund's adjuvant induced inflammatory pain (not stated which per compound); read-out: Biological Activity (ED50)
Summary of the method: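 Subcutaneous dosing, then tail immersion in 55° C water at 30–120 min; latency normalized as 100×(test−control)/(20−control), using a 20 s cutoff, after excluding mice not responding within 2 s at baseline. Values expressed as ED50 (mg/kg).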

**Q.** With `CC(C)(c1ccccn1)N1CC[C@@](/C=C/c2ccc(C#N)cc2)(c2nn[nH]n2)C1` [Compound 185, (S,E)-4-(2-(1-(2-(pyridin-2-yl)propan-2-yl)-3-(2H-tetrazol-5-yl)pyrrolidin-3-yl)vinyl) benzonitrile] as the compound, how does the ED50 read?
**A.** > 50 mg/kg

**Q.** With `CCOC(C(F)(F)F)(C(F)(F)F)[C@]1(/C=C/c2ccc3nonc3c2)CCN(C(C)(C)c2ccc(C)nc2)C1` [Compound 186, (S,E)-5-(2-(3-(2-ethoxy-1,1,1,3,3,3-hexafluoropropan-2-yl)-1-(2-(6-methylpyridin-3-yl)propan-2-yl)pyrrolidin-3-yl)vinyl)benzo[c] [1,2,5]oxadiazole] as the compound, how does the ED50 read?
**A.** ≤ 30 mg/kg

**Q.** For `CCOC(C(F)(F)F)(C(F)(F)F)[C@]1(/C=C/c2cnc3ccccc3n2)CCN(C(C)(C)c2ccc(C)nc2)C1` [Compound 187, (S,E)-2-(2-(3-(2-ethoxy-1,1,1,3,3,3-hexafluoropropan-2-yl)-1-(2-(6-methylpyridin-3-yl)propan-2-yl)pyrrolidin-3-yl)vinyl)quinoxaline], which ED50 is on record?
**A.** > 50 mg/kg

**Q.** `CC(C)(c1ccccn1)N1CC[C@@](/C=C/c2ccc(C(F)(F)F)o2)(COCc2ccccc2)C1` [Compound 188, (S,E)-2-(2-(3-((benzyloxy)methyl)-3-(2-(5-(trifluoromethyl)furan-2-yl)vinyl)pyrrolidin-1-yl)propan-2-yl)pyridine] was tested. Which ED50 did it give?
**A.** > 50 mg/kg

**Q.** `CC(C)(c1ccccn1)N1CC[C@](CO)(CCc2ccc(C(F)(F)F)o2)C1` [Compound 189, (R)-(1-(2-(pyridin-2-yl)propan-2-yl)-3-(2-(5-(trifluoromethyl)furan-2-yl)ethyl)pyrrolidin-3-yl)methano] was tested. Which ED50 did it give?
**A.** > 50 mg/kg

**Q.** How did the ED50 turn out when `CC(C)(c1ccccn1)N1CC[C@](CO)(CCc2cnc(C(F)(F)F)nc2)C1` [Compound 190, (R)-(1-(2-(pyridin-2-yl)propan-2-yl)-3-(2-(2-(trifluoromethyl)pyrimidin-5-yl)ethyl)pyrrolidin-3-yl)methanol] was run?
**A.** > 50 mg/kg

**Q.** For `CC(C)(c1ccccn1)N1CC[C@@](CCc2ccc3ccoc3c2)(c2c[nH]nn2)C1` [Compound 191, (R)-2-(2-(3-(2-(benzofuran-6-yl)ethyl)-3-(1H-1,2,3-triazol-4-yl)pyrrolidin-1-yl)propan-2-yl)pyridine], which ED50 is on record?
**A.** > 50 mg/kg

**Q.** How did the ED50 turn out when `CCOC[C@@]1(CCc2ccc(S(C)(=O)=O)cc2)CCN(C(C)(C)c2ccccc2)C1` [Compound 200, (S)-3-(ethoxymethyl)-3-(4-(methylsulfonyl)phenethyl)-1-(2-phenylpropan-2-yl)pyrrolidine] was run?
**A.** ≤ 30 mg/kg

**Q.** Which ED50 does the source give for `CC(C)(c1ccccn1)N1CC[C@@](CCc2ccc(C#N)cc2)(C(=O)NC2(C(F)(F)F)CC2)C1` [Compound 201, (R)-3-(4-cyanophenethyl)-1-(2-(pyridin-2-yl)propan-2-yl)-N-(1-(trifluoromethyl)cyclopropyl) pyrrolidine-3-carboxamide] here?
**A.** ≤ 30 mg/kg

**Q.** `CC(C)(c1ccccn1)N1CC[C@@](CCc2ccc(C#N)cc2)(CNC2(C(F)(F)F)COC2)C1` [Compound 202, (S)-4-(2-(1-(2-(pyridin-2-yl)propan-2-yl)-3-(((3-(trifluoromethyl)oxetan-3-yl)amino)methyl)pyrrolidin-3-yl)ethyl) benzonitrile] was tested. Which ED50 did it give?
**A.** > 50 mg/kg

**Q.** Which ED50 does the source give for `CC(C)(c1ccccn1)N1CC[C@@](CCc2ccc(C#N)cc2)(CNC2(C(F)(F)F)CC2)C1` [Compound 203, (S)-4-(2-(1-(2-(pyridin-2-yl)propan-2-yl)-3-(((1-(trifluoromethyl)cyclopropyl)amino)methyl)pyrrolidin-3-yl)ethyl) benzonitrile] here?
**A.** > 50 mg/kg

**Q.** With `CC(C)(c1ccccn1)N1CC[C@@](CCc2ccc(C#N)cc2)(C(=O)NC2(C(F)(F)F)COC2)C1` [Compound 206, (R)-3-(4-cyanophenethyl)-1-(2-(pyridin-2-yl)propan-2-yl)-N-(3-(trifluoromethyl)oxetan-3-yl)pyrrolidine-3-carboxamide] as the compound, how does the ED50 read?
**A.** ≤ 30 mg/kg

**Q.** With `CC(C)(c1ccccn1)N1CC[C@@](CCc2ccc(C#N)cc2)(C(=O)Nc2ccc(F)cn2)C1` [Compound 207, (R)-3-(4-cyanophenethyl)-N-(5-fluoropyridin-2-yl)-1-(2-(pyridin-2-yl)propan-2-yl)pyrrolidine-3-carboxamide] as the compound, how does the ED50 read?
**A.** ≤ 30 mg/kg

**Q.** Which ED50 does the source give for `CC(C)(c1ccccn1)N1CC[C@@](CCc2ccc(C#N)cc2)(C(=O)NC2(C#N)COC2)C1` [Compound 208, (R)-N-(3-cyanooxetan-3-yl)-3-(4-cyanophenethyl)-1-(2-(pyridin-2-yl)propan-2-yl)pyrrolidine-3-carboxamide] here?
**A.** ≤ 30 mg/kg

**Q.** How did the ED50 turn out when `CC(C)(c1ccccn1)N1CC[C@@](CCc2ccc(C#N)cc2)(CNC2(C#N)COC2)C1` [Compound 209, (S)-3-(((3-(4-cyanophenethyl)-1-(2-(pyridin-2-yl)propan-2-yl)pyrrolidin-3-yl)methyl)amino) oxetane-3-carbonitrile] was run?
**A.** > 50 mg/kg

**Q.** `CC(C)(c1ccccc1)N1CC[C@](CCc2ccc(S(C)(=O)=O)cc2)([C@@H](O)C(F)(F)F)C1` [Compound 212, (R)-2,2,2-trifluoro-1-((S)-3-(4-(methylsulfonyl)phenethyl)-1-(2-phenylpropan-2-yl)pyrrolidin-3-yl)ethan-1-ol] was tested. Which ED50 did it give?
**A.** ≤ 30 mg/kg

**Q.** For `CC(C)(c1ccccn1)N1CC[C@](CO)(CCc2ccc(F)cc2)C1` [Compound 215, (R)-(3-(4-fluorophenethyl)-1-(2-(pyridin-2-yl)propan-2-yl)pyrrolidin-3-yl)methanol], which ED50 is on record?
**A.** > 50 mg/kg

**Q.** For `CCOC[C@]1(CCc2ccc(S(C)(=O)=O)cc2)CCN(C(C)(C)c2ccc(Cl)cc2)C1` [Compound 221, (R)-1-(2-(4-chlorophenyl)propan-2-yl)-3-(ethoxymethyl)-3-(4-(methylsulfonyl)phenethyl) pyrrolidine], which ED50 is on record?
**A.** > 50 mg/kg

**Q.** With `CC(C)(c1ccccn1)N1CC[C@](CCc2ccc(C#N)cc2)(c2ncc[nH]2)C1` [Compound 225, (S)-4-(2-(3-(1H-imidazol-2-yl)-1-(2-(pyridin-2-yl)propan-2-yl)pyrrolidin-3-yl)ethyl) benzonitrile] as the compound, how does the ED50 read?
**A.** > 50 mg/kg

**Q.** For `CC(C)(c1ccc(F)cn1)N1CC[C@@](CO)(CCc2ccc(C#N)cc2)C1` [Compound 226, (S)-4-(2-(1-(2-(5-fluoropyridin-2-yl)propan-2-yl)-3-(hydroxymethyl)pyrrolidin-3-yl)ethyl) benzonitrile], which ED50 is on record?
**A.** > 50 mg/kg

From patent US20240383882A1 (Ecstasy LLC, priority 2020, published 2024)
